Test results taken from US20060281807A1, “Quassinoid compositions for the treatment of cancer and other proliferative diseases” (Tapestry Pharmaceuticals, Inc., priority 2005, published 2006).
Values after ≈ are worked out from the molar mass of the structure shown. Values joined by “and” are separate entries in the source; they are usually repeats but may differ in a detail not shown here. Identical values can stand only once. Like-named read-outs stand apart in the source and are kept apart here.

Assays:
[1] = test system: H125 (human lung carcinoma); experiment: Disk diffusion assay, zone of inhibition, H125; type: cell-based; settings: 1 mg/mL
Procedure: (§1) A disk diffusion assay was performed to define the differential cell killing ability of 15-O-(3′-hydroxy-3′-isopropyl-4′-methylpentanoyl)bruceolide. Seven cell types were assayed: L1210 (ATCC CCL-219) (murine leukemia), CCRF-CEM (ATCC CCL-119) (human leukemia), Colon 38 (murine colon adenocarcinoma), HCT116 (ATCC CCL-247) (human colorectal carcinoma), H125 (human lung carcinoma). The murine and human granulocyte/macrophage progenitor cell line (CFU-GM), served as controls.
(§2) Colon 38 cells (about 1 gram) were cut into small fragments in 15 mL of Hank's Balanced Salt Solution (HBSS) over a 100-mesh sieve and gently forced through by the scissors with HBSS constantly perfusing the sieve. The resulting material was then drawn into and out of a 5 mL syringe without a needle to further disperse the cell clumps. The cell solution was diluted and plated in 0.3% agarose in DMEM plus 10% heat-inactivated Bovine Calf Serum (BCS). For plating of all of the cell types (except controls), the 60 mm plates were first prepared with a hard agar bottom layer (0.6% agar in RPMI-1640 plus 15% BCS).
(§3) HCT116 and H125 cells were maintained in cell culture, and were removed from culture by a trypsin-collagenase-DNAase cocktail. The plating efficiencies of each cell type was sufficiently high that 30,000 cells in 3 mL produced the desired number of colonies (i.e., over 10,000 per plate) in 60 mm plates. This soft agar top layer (0.3% with the serum and media as above) plus the titrated tumor cells were poured into the plates and allowed to solidify.
(§4) A 15 μl sample of each compound was dropped onto a 6.5 mm disk (Baxter filter disks). The disks were allowed to dry overnight and then placed close to the edge of a petri dish. Depending upon the cell type, the dishes were incubated for 7 to 10 days, and examined by an inverted stereo-microscope (10×) for measurement of the zone of inhibition. The zone of inhibition was measured from the edge of the filter disk to the beginning of normal-sized colony formation. The diameter of the filter disk, 6.5 mm, was arbitrarily taken as a zone of 200 units. Compounds that were selective for killing solid tumors, as compared to leukemia or normal cells (“solid tumor selective”) were defined as those compounds which produced a difference in zones between solid tumor cells and either normal or leukemia cells of at least 250 units. The results of this analysis are set forth in Table 4, which illustrates the relative diameters of the zones of inhibition by various drugs on the growth of the respective cell types at various drug dilutions.

HCT-116 cells [2] = experiment: HCT-116 cytotoxicity, viable cell count by trypan blue; type: cell-based, human
murine CFU-GM = experiment: Disk diffusion assay, zone of inhibition, murine CFU-GM; type: cell-based; settings: 1 mg/mL
Procedure: as §1
(§5) For CFU-GM cells, the femoral marrow of BD2F1 mice was flushed with MEM alpha (2 mL per femur). The cells were passed through an 18 gauge needle twice and the monodispersed suspension was counted. A total of 1.5×10^6 cells were plated in 3 mL of 0.3% agar with the addition of 10% L cell conditioned media, which provided colony stimulating factor, in MEM-alpha plus 10% BCS. For human CFU-GM, the cells were obtained from Poietic Technologies, Inc. (Gaithersburg, Md.) and washed twice with PBS before being titered and added to the agar mixture. The same cell number, culture conditions, and conditioning factors used with respect to the murine CFU-GM cells were used with the human cells, except that the cultures were assessed after 10 days of incubation.
as §4

[3] = Maximum tolerated dose in mice; settings: intravenous, first stage, one mouse per dose
Procedure: Formulations containing 15-O-(3′-hydroxy-3′-isopropyl-4′-methylpentanoyl)bruceolide, 15-(3-isopropyl-4-methyl-2-pentenoyl)-bruceolide, and, for comparative purposes, bruceantin, or peninsularinone were prepared by solubilizing each compound in up to 100 mg/mL of ethanol. These solutions were diluted 1:1 with a stabilizer (Cremophor/propylene glycol). The solutions were then diluted in saline (1:10 minimum).
The maximum tolerated dose (MTD) was determined by a two-stage experiment. In the first stage, between 1 and 10 mg/mL of the formulation was prepared as described above. Next, 0.25 mL of the formulation was injected intravenously into one 20 gram mouse (0.75 mg/mouse). If the animal died within 30 days of injection, a series of subsequent 2-fold dilutions were administered to individual mice until an MTD was defined. […] The second stage of the study involved increasing the number of mice per dose to four, and retesting four dilutions that bracket the MTD from the individual mouse study. The four dilutions were the MTD, a dosage twice the MTD, a dosage ½ the MTD, and a dosage ¼ the MTD.

[4] = test system: Colon 38 (murine colon adenocarcinoma); experiment: Disk diffusion assay, zone of inhibition, Colon 38; zone differentials, potency and product; type: cell-based; design: key to C38ΔL1210 / C38ΔCFU: difference of zone of inhibition values, in zone units; settings: for zone of inhibition, Colon 38: 1 mg/mL; for Sum: C38ΔL1210 plus C38ΔCFU; for C38ΔL1210: Colon38 vs L1210 leukemia; for Product: potency multiplied by zone differentials
Procedure: as §1, §2, §4
The degree of differential sensitivity of several inventive compounds was compared with respect to the Colon38 cell line, the L1210 cell line, and the control CFU-GM cell lines. The degree of differential sensitivity was estimated by calculating the difference between the zone of inhibition values, as determined in Example 6, for the solid tumor compared to either the leukemia (C38ΔL1210) or normal cell (C38ΔCFU).
The potency of each of several inventive compounds was determined by identifying the dilution required to yield an average zone of inhibition of 500 units for the Colon38 cell type. Then the potency and the zone differentials were multiplied to define a “product” (see Table 5), which can be used to rank the compounds tested for their potential for further development; the greater the product value the greater the probability of useful chemotherapeutic utility.

HCT-116 cells [5] = experiment: Clonogenic assay, HCT-116; type: cell-based, human; settings: colonies at 7 days
Procedure: A clonogenic assay was performed using HCT-116 cells. Specifically, HCT-116 cells were seeded at 200 to 20,000 cells in 60 mm dishes. […] At either 2 hours or 24 hours following drug administration, the drug-containing media was removed, and fresh media without drug was added. In addition, one group of cells was subjected to continuous drug exposure for the entire incubation period. The dishes were incubated for 7 days (at 37° C. and 5% CO2), media was removed, and the colonies were stained with methylene blue. Colonies containing 50 cells or more were counted. The results were normalized to an untreated control. Plating efficiency for the untreated cells was about 90%. Repeat experiments also were carried out to define the cell survival range between 1 (100%) and 10^−3 (0.1%) survival. A survival rate of 10^−1 was chosen as the minimal level that would be required in vivo to achieve therapeutic efficacy against HCT-116 cells in tumor-bearing mice. The clonogenic dose response to 15-O-(3′-hydroxy-3′-isopropyl-4′-methylpentanoyl)bruceolide is illustrated in FIG. 4. The clonogenic dose response to 15-(3-isopropyl-4-methyl-2-pentenoyl)-bruceolide is illustrated in FIG. 5.

[6] = test system: HCT116 (human colorectal carcinoma); experiment: Disk diffusion assay, zone of inhibition, HCT116; type: cell-based; settings: 1 mg/mL
Procedure: as §1, §2, §3, §4

[7] = test system: CCRF-CEM (human leukemia); experiment: Disk diffusion assay, zone of inhibition, CCRF-CEM; type: cell-based; settings: 1 mg/mL
Procedure: as §1, §2, §4

L1210 (murine leukemia) = experiment: Disk diffusion assay, zone of inhibition, L1210; type: cell-based; settings: 1 mg/mL
Procedure: as §1, §2, §4

human CFU-GM = type: cell-based; settings: 1 mg/mL
Procedure: as §1, §5, §4

[8] = no dilution, 15 μl on disk, 6.5 mm = 200 units
[9] = HCT-116, 3 days with compound, viable cells, by interpolation
[10] = difference between zone of inhibition values

## CC[C@@](O)(CC(=O)O[C@@H]1C(=O)O[C@@H]2C[C@@H]3C(C)=CC(=O)[C@H](O)[C@]3(C)[C@H]3[C@]4(O)OC[C@]32[C@@H]1[C@@H](C)[C@H]4O)C(C)C [Peninsularinone, peninsularinone]
[1]; dilution 1/10
  zone of inhibition, H-125 M: >1000 units
[1]; dilution 1/100
  zone of inhibition, H-125 M: 1000 units
[1]; dilution 1/1000
  zone of inhibition, H-125 M: 400 units
[1]; [8]
  zone of inhibition, H-125 M: >1000 units
HCT-116 cells [2]; HCT-116
  IC90/IC50: 13
HCT-116 cells [2]; [9]
  IC50: 1.2 ng/mL (≈ 0.00224 µM)
  IC90: 15 ng/mL (≈ 0.028 µM)
Murine CFU-GM; dilution 1/10
  zone of inhibition, murine CFU-GM: >1000 units
Murine CFU-GM; dilution 1/100
  zone of inhibition, murine CFU-GM: 450 units
Murine CFU-GM; dilution 1/4000
  zone of inhibition, murine CFU-GM: 0 units
Murine CFU-GM; dilution 1/10000
  zone of inhibition, murine CFU-GM: 0 units
Murine CFU-GM; [8]
  zone of inhibition, murine CFU-GM: >1000 units
[3]
  maximum tolerated dose, Dose - 1 Mouse: 0.01 mg/mouse and 0.45 mg/kg
[4]; dilution 1/10
  zone of inhibition, Colon 38: >1000 units
[4]; dilution 1/100
  zone of inhibition, Colon 38: >1000 units
[4]; dilution 1/1000
  zone of inhibition, Colon 38: 800 units and 550 units
[4]; dilution 1/4000
  zone of inhibition, Colon 38: 250 units
[4]; dilution 1/10000
  zone of inhibition, Colon 38: 200 units
[4]; [8]
  zone of inhibition, Colon 38: >1000 units
[4]
  Sum: 1100 and 550
  Product: 6600 and 3575
[4]; [10]
  C38ΔL1210: 450 and 250
HCT-116 cells [5]; HCT-116, 2 Hour Exposure
  Concentration Required for 10^−1 Survival Fraction: >10 μg/mL
HCT-116 cells [5]; HCT-116, 24 Hour Exposure
  Concentration Required for 10^−1 Survival Fraction: 1 × 10^−2 μg/mL
HCT-116 cells [5]; HCT-116, Continuous Exposure
  Concentration Required for 10^−1 Survival Fraction: 1 × 10^−3 μg/mL
[6]; dilution 1/10
  zone of inhibition, H-116: >1000 units
[6]; dilution 1/100
  zone of inhibition, H-116: 950 units
[6]; dilution 1/1000
  zone of inhibition, H-116: 450 units
[6]; [8]
  zone of inhibition, H-116: >1000 units
[7]; dilution 1/10
  zone of inhibition, CEM: >1000 units
[7]; dilution 1/100
  zone of inhibition, CEM: 800 units
[7]; dilution 1/1000
  zone of inhibition, CEM: 500 units
[7]; [8]
  zone of inhibition, CEM: >1000 units
L1210 (murine leukemia); dilution 1/10
  zone of inhibition, L1210: >1000 units
L1210 (murine leukemia); dilution 1/100
  zone of inhibition, L1210: 700 units
L1210 (murine leukemia); dilution 1/1000
  zone of inhibition, L1210: 300 units and 200 units
L1210 (murine leukemia); dilution 1/4000
  zone of inhibition, L1210: 50 units
L1210 (murine leukemia); dilution 1/10000
  zone of inhibition, L1210: 100 units
L1210 (murine leukemia); [8]
  zone of inhibition, L1210: >1000 units

## CC(=O)O[C@H]1C(=O)[C@@]2(C)[C@H]([C@H](OC(=O)c3ccccc3)[C@]3(O)C[C@H](OC(=O)[C@H](O)[C@@H](NC(=O)c4ccccc4)c4ccccc4)C(C)=C1C3(C)C)[C@]1(OC(C)=O)CO[C@@H]1C[C@@H]2O [Taxol, taxol]
[1]; dilution 1/4
  zone of inhibition, H-125 M: 850 units
[1]; dilution 1/16
  zone of inhibition, H-125 M: 750 units
[1]; dilution 1/64
  zone of inhibition, H-125 M: 650 units
[1]; dilution 1/256
  zone of inhibition, H-125 M: 500 units
[1]; [8]
  zone of inhibition, H-125 M: >1000 units
Murine CFU-GM; dilution 1/4
  zone of inhibition, murine CFU-GM: 600 units
Murine CFU-GM; dilution 1/16
  zone of inhibition, murine CFU-GM: 550 units
Murine CFU-GM; dilution 1/64
  zone of inhibition, murine CFU-GM: 400 units
Murine CFU-GM; dilution 1/256
  zone of inhibition, murine CFU-GM: 150 units
Murine CFU-GM; [8]
  zone of inhibition, murine CFU-GM: 650 units
Human CFU-GM; dilution 1/4
  zone of inhibition, human CFU-GM: >1000 units
Human CFU-GM; dilution 1/16
  zone of inhibition, human CFU-GM: 800 units
Human CFU-GM; dilution 1/64
  zone of inhibition, human CFU-GM: 750 units
Human CFU-GM; dilution 1/256
  zone of inhibition, human CFU-GM: 550 units
Human CFU-GM; [8]
  zone of inhibition, human CFU-GM: >1000 units
[4]; dilution 1/4
  zone of inhibition, Colon 38: 900 units
[4]; dilution 1/16
  zone of inhibition, Colon 38: 750 units
[4]; dilution 1/64
  zone of inhibition, Colon 38: 600 units
[4]; dilution 1/256
  zone of inhibition, Colon 38: 450 units
[4]; [8]
  zone of inhibition, Colon 38: >1000 units
[4]
  Sum: 700
  Product: 3500
[4]; [10]
  C38ΔL1210: 400
[4]; difference between zone of inhibition values, Colon38 vs normal cell CFU-GM
  C38ΔCFU: 300
[6]; dilution 1/4
  zone of inhibition, H-116: 750 units
[6]; dilution 1/16
  zone of inhibition, H-116: 650 units
[6]; dilution 1/64
  zone of inhibition, H-116: 550 units
[6]; dilution 1/256
  zone of inhibition, H-116: 400 units
[6]; [8]
  zone of inhibition, H-116: 850 units
[7]; dilution 1/4
  zone of inhibition, CEM: >1000 units
[7]; dilution 1/16
  zone of inhibition, CEM: 900 units
[7]; dilution 1/64
  zone of inhibition, CEM: 750 units
[7]; dilution 1/256
  zone of inhibition, CEM: 550 units
[7]; [8]
  zone of inhibition, CEM: >1000 units
L1210 (murine leukemia); dilution 1/4
  zone of inhibition, L1210: 550 units
L1210 (murine leukemia); dilution 1/16
  zone of inhibition, L1210: 500 units
L1210 (murine leukemia); dilution 1/64
  zone of inhibition, L1210: 350 units
L1210 (murine leukemia); dilution 1/256
  zone of inhibition, L1210: 50 units
L1210 (murine leukemia); [8]
  zone of inhibition, L1210: 650 units
